Laboratory results as given in EP0628539B1, “Polyepoxysuccinic acid derivatives and their use for the control of scale formation and corrosion in aqueous systems” (BetzDearborn Europe, Inc., priority 1993, dated 1994).

What was measured:
[1] = Static calcium carbonate % inhibition evaluation (EDTA titration of filtrate calcium); conditions: 1106 ppm Ca as CaCO3, 1160 ppm CO3 as CaCO3, pH = 9.0, Temp. = 70°C, Duration = 17 hours
Method: Table II summarizes the static calcium carbonate inhibition testing of the compounds of the present invention compared to several prior art calcium carbonate control agents. The tests were performed by adding the treatment solution (sample) to a carbonate stock solution of the described conditions.
A calcium stock solution was then added and the mixture was incubated for 17 hours at 70°C. All treatments were adjusted to pH 9.0 prior to use and the treatment weights, expressed as the sodium salts, accounted for the presence of disodium tartrate by-product. After cooling, a measured portion of the mixture was filtered and the filtrate pH adjusted to less than 1 with hydrochloric acid. The filtrate was then diluted and pH adjusted to 12 with sodium hydroxide. A calcium indicator, murexide, was then added and the solution titrated with a known concentration of ethylenediaminetetraacetic acid (EDTA). From titrations for the treated, stock and control solutions, the percent inhibition was calculated as follows: % Inhibition =(mls EDTA(treated) - mls EDTA(control))/(mls EDTA(stock) - mls EDTA(control))x 100 [formula]

[2] = Beaker Corrosion Test Apparatus (BCTA): coupon and probe weight loss, electrochemical corrosion rate; conditions: 25 ppm, base treatment 1 ppm HEDP, 10 ppm acrylic copolymer, 15 ppm molybdate (PESA: no HEDP), pH 8.4, 120°F, 40 hours
Method: The corrosion inhibition activity of the present invention was evaluated with a Beaker Corrosion Test Apparatus (BCTA). […] The test solution volume is 1.9 liters.
Electrochemical corrosion rate data (EC) are obtained during the test from potentiodynamic polarization resistance measurements. Additional corrosion data is obtained from the coupon and the electrochemical probe by standard weight loss measurement techniques. All tests were conducted under the following conditions unless otherwise noted:
Under these conditions, the test water is supersaturated with respect to calcium carbonate. […] Therefore, all tests were conducted with a base treatment to inhibit the precipitation of calcium carbonate under the test conditions. The blank runs reported for all tests include the addition of the base treatment.
In all tests, the blank corrosion rates are expressed in mils per year (mpy). The corrosion rates for the inhibitor compounds are expressed as a reduction in the corrosion rate relative to the blank calculated according to the following equation: % Corrosion Inhibition =((mpy Blank - mpy Treated))/(mpy Blank)x 100 [formula]
All tests were conducted as parts per million of the inhibitor molecule as the sodium salt. Compound αHCA(12) was evaluated as ppm of the free acid.
A sample of poly[epoxysuccinic acid]

| SMILES | Static Calcium Carbonate % Inhibition ([1]; 5 ppm Actives) [%] | Static Calcium Carbonate % Inhibition ([1]; 10 ppm Actives) [%] | Percent Corrosion Inhibition, Coupon ([2]; coupon weight loss relative to blank (62.4 mpy)) [%] | Percent Corrosion Inhibition, EC (avg) ([2]; electrochemical corrosion rate relative to blank (47.1 mpy)) [%] | Percent Corrosion Inhibition, Probe ([2]; probe weight loss relative to blank (58.9 mpy)) [%] |
| --- | --- | --- | --- | --- | --- |
| CC(O)(P(=O)(O)O)P(=O)(O)O [HEDP, 1-hydroxyethylidene-1,1-diphosphonic acid] | 73.1 | 71.3 | – | – | – |
| O=C(O)CCC(CC(=O)O)(C(=O)O)P(=O)(O)O (stereo not drawn) [PBSAM, 2-phosphonobutane - 1,2,4-tricarboxylic acid] | 67.5 | 76.0 | – | – | – |
| O=C([O-])C(O)[C@H](NCCS(=O)(=O)[O-])C(=O)[O-].[Na+].[Na+].[Na+] (stereo partly drawn) [αHCA(9), aspartic acid, 3-hydroxy, N-[2-ethanesulfonic acid]-trisodium salt] | 5.1 | 3.7 | 29.3 | 69.4 | 66.2 |
